Legend:
Human Placenta DPP-IV = target: T1, Human Placenta DPP-IV (Homo sapiens, UniProt P27487); test: Inhibition of DPP-IV by peptidyl phosphonates, incubation method; format: biochemical; details: for % Inhibition 2 min / % Inhibition 30 min: [I] 0.12 mM, 0.05 M Tris pH 7.8, 5% Me2SO, substrate TFA.Ala-Pro-AFC 0.190 mM; for % Inhibition 2 min / % Inhibition 30 min / kobs /[I] for DPP-IV: 23° C.; for kobs /[I] for DPP-IV: 0.05 M Tris pH 7.8, 8% Me2SO, substrate TFA.Ala-Pro-AFC 0.2 mM; for inhibition of DPP-IV, in words: inhibitor 0.12 mM
T1 construct: from tissue; host or cells: human placenta
T1 sequence (P27487 whole entry): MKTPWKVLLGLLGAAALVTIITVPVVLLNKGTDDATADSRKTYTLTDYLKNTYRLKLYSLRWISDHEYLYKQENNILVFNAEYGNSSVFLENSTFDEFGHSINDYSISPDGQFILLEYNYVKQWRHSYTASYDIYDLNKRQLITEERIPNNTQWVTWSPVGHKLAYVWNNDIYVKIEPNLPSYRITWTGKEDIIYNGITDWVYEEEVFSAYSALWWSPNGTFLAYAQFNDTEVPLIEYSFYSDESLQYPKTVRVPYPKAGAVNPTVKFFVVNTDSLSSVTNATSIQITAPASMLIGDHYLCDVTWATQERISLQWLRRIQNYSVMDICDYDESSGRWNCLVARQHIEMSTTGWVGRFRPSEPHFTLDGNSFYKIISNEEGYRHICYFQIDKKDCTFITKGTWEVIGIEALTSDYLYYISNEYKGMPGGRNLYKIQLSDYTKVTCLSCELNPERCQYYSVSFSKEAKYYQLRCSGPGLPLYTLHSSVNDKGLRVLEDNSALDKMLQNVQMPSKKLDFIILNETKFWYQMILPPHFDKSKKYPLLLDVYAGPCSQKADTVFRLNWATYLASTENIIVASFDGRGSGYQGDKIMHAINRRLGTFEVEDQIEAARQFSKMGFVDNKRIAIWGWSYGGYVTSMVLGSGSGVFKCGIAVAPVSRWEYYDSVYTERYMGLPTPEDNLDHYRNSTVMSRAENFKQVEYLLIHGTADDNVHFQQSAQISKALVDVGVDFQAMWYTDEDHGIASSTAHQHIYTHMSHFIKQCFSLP
Protocol: Standard Assay of DPP-IV. DPP-IV was assayed in 450 μL of 50 mM Tris, pH 7.8, 0.2 mM Ala-Pro-AFC (freshly diluted from a 20 mM stock in DMF), and 5 μL of enzyme solution at 30° C. or in 2 mL of buffer, 0.2 mM Ala-Pro-AFC (diluted from 8 mM stock in Me2 SO) at 23° C. Fluorescence was measured at 400 nm excitation and 505 nm emission. One unit of DPP-IV is defined as the amount of enzyme that will hydrolyze 1.0 μmole of Ala-Pro-AFC per min at 25° C. and pH 7.8.
Enzyme Irreversible Inactivation--Incubation Method. An aliquot of inhibitor (25 or 50 μL) in Me2 SO was added to 0.28-0.55 mL of a buffered enzyme solution (0.83 munits for DPP-IV; 2.1 units for acetylcholinesterase; 0.07-4.5 μM for other enzymes) to initiate the inactivation reaction. Aliquots (20-250 μL) were withdrawn at various intervals and the residual enzymatic activity was measured at 23° C. as described below. The buffers were: 0.05M Tris, pH 7.8 for DPP-IV; 0.1M Hepes, 0.01M CaCl2, pH 7.5 for bovine trypsin; 0.1M Hepes, 0.5M NaCl, pH 7.5 for bovine chymotrypsin, PPE, and HLE; 0.1M phosphate, pH 7.5 for acetylcholinesterase; 50 mM Tris-HCl, 2 mM EDTA, 5 mM cysteine, (freshly prepared) pH 7.5 buffer for papain and 100 mM KH2 PO4, 1.33 mM EDTA, 2.7 mM cysteine (freshly prepared), pH 6.0 buffer for cathepsin B. […] The inhibitor concentrations are shown in the appropriate table. Stock solutions of substrates were prepared in Me2 SO and stored at -20° C. DPP-IV was assayed with TFA.Ala-Pro-AFC. Papain and cathepsin B were assayed with Bz-Arg-AMC and Z-Arg-Arg-AMC, respectively. The release of AMC were followed fluorometrically (excitation at 380 nm and emmision at 460 nm for AMC). Acetylcholinesterase was assayed with acetylthiocholine iodide in the presence of DTNB at 412 nm. Trypsin was assayed with Z-Phe-Gly-Arg-.rho.NA.HCl (0.09 mM), chymotrypsin was assayed with Suc-Phe-Thr-Phe-.rho.NA (0.48 mM), PPE and HLE were assayed with Suc-Ala-Ala-Ala-.rho.NA (0.44 mM) and MeO-Suc-Ala-Ala-Pro-Val-.rho.NA (0.24 mM), respectively. Peptide .rho.-nitroanilide hydrolysis was measured at 410 nm (ε410 =8,800 M ^1 cm^-1). Pseudo first-order inactivation rate constants (kobs) were obtained from plots of In vt /vo vs time, and the correlation coefficients were greater than 0.98.

DPP-IV = DPP-IV (Homo sapiens, UniProt P27487); test: Stability of inhibited DPP-IV; details: for recovery of enzyme activity of inhibited DPP-IV: after 24 h, excess inhibitor removed by centrifugation; for DPP-IV enzyme activity found after incubation with inhibitor: inhibitor 0.042-0.42 mM, pH 7.8 buffer, incubation for 1 h
Sequence of DPP-IV (P27487 whole entry): as above
Protocol: Excess inhibitors in the inhibited enzyme solution were removed by centrifugation of the diluted enzyme solution twice using Amicon microconcentrators.
Stability of Inhibited DPP-IV. […] Excess inhibitors was removed from diluted solutions of inactivated enzyme by centrifugation three times at 0° C. for 1 h each in Amicon Centricon-10 microconcentrators following addition of buffer. The enzyme activity of solution was assayed at various intervals as described above.

[1] = Half-lives for spontaneous hydrolysis of inhibitors in buffer; format: physicochemical; details: 0.05 M Tris, pH 7.8 buffer, 8% Me2SO, 23° C.
Excerpt: Determination of Half-Lives for Spontaneous Hydrolysis of Inhibitors in Buffer. […] The spontaneous hydrolysis was monitored by following the increase in absorbance at 270 nm for phosphonates with phenoxy groups, at 280 nm for compounds with 4-.chlorophenoxy groups or at 277 nm for the 4-fluorophenoxy derivative. Half-lives were obtained from first-order plots of ln (Af -At) vs time, where At is the absorbance of the mixture at time t, and Af is the final absorbance of phosphonate monophenyl ester and phenol (or corresponding compounds). This was obtained from the absorbance of the solution which had remained constant for a few hours. All the plots gave correlation coefficients of 0.95 or greater.

Chymotrypsin = Chymotrypsin (Bos taurus, UniProt P00766); test: Inhibition of chymotrypsin, incubation method; format: biochemical, bovine; details: for kobs /[I] Chymotrypsin: [I] 0.42 mM, 0.1 M Hepes, 0.5 M NaCl, pH 7.5, 8-9% Me2SO, 23° C., Suc-Phe-Thr-Phe-pNA 0.48 mM
Protocol: Inactivation rates of serine proteases by aryl diesters of peptidyl derivatives of α-aminoalkylphosphonates were measured by the incubation method. An aliquot of inhibitor (25 or 50 μl) in Me2 SO was added to a buffered enzyme solution (0.01-2.3 μM) to initiate the inactivation. Aliquots (50 μl) were withdrawn at various intervals and the residual enzymatic activity was measured. Me2 SO concentration in the reaction mixture was 8-12% (v/v). A 0.1M HEPES, 0.01M CaCl2, pH 7.5 buffer was utilized for trypsin and trypsin-like enzymes. A 0.1M HEPES, 0.5M NaCl, pH 7.5, was utilized for the other serine proteases. Peptide thioesters or peptide nitroanilides with the appropriate sequences were used as substrates for various serine proteases. All peptide thioesters hydrolysis rates were measured with the assay mixture containing 4,4'-dithiodipyridine (ε324 =19800M^-1 cm^-1). Peptide 4-nitroanilide hydrolysis was measured at 410 nm (ε410 =8800 M ^-1 cm^-1). First order inactivation rate constants (kobs) were obtained from plots of ln vt /vo vs time, and the correlation coefficients were greater then 0.98.
Enzyme Irreversible Inactivation--Incubation Method. An aliquot of inhibitor (25 or 50 μL) in Me2 SO was added to 0.28-0.55 mL of a buffered enzyme solution (0.83 munits for DPP-IV; 2.1 units for acetylcholinesterase; 0.07-4.5 μM for other enzymes) to initiate the inactivation reaction. Aliquots (20-250 μL) were withdrawn at various intervals and the residual enzymatic activity was measured at 23° C. as described below. The buffers were: 0.05M Tris, pH 7.8 for DPP-IV; 0.1M Hepes, 0.01M CaCl2, pH 7.5 for bovine trypsin; 0.1M Hepes, 0.5M NaCl, pH 7.5 for bovine chymotrypsin, PPE, and HLE; 0.1M phosphate, pH 7.5 for acetylcholinesterase; 50 mM Tris-HCl, 2 mM EDTA, 5 mM cysteine, (freshly prepared) pH 7.5 buffer for papain and 100 mM KH2 PO4, 1.33 mM EDTA, 2.7 mM cysteine (freshly prepared), pH 6.0 buffer for cathepsin B. The Me2 SO concentration in the reaction mixtures was 8-9% (v/v). The inhibitor concentrations are shown in the appropriate table. Stock solutions of substrates were prepared in Me2 SO and stored at -20° C. DPP-IV was assayed with TFA.Ala-Pro-AFC. Papain and cathepsin B were assayed with Bz-Arg-AMC and Z-Arg-Arg-AMC, respectively. The release of AMC were followed fluorometrically (excitation at 380 nm and emmision at 460 nm for AMC). Acetylcholinesterase was assayed with acetylthiocholine iodide in the presence of DTNB at 412 nm. Trypsin was assayed with Z-Phe-Gly-Arg-.rho.NA.HCl (0.09 mM), chymotrypsin was assayed with Suc-Phe-Thr-Phe-.rho.NA (0.48 mM), PPE and HLE were assayed with Suc-Ala-Ala-Ala-.rho.NA (0.44 mM) and MeO-Suc-Ala-Ala-Pro-Val-.rho.NA (0.24 mM), respectively. Peptide .rho.-nitroanilide hydrolysis was measured at 410 nm (ε410 =8,800 M ^1 cm^-1). […]

[2] = Hydrolysis in human plasma; format: in vitro ADME
Excerpt: Furthermore, they show excellent stability in human plasma. For example Suc-Val-Pro-Phe^P (OPh)2 has a hydrolysis half-time in human plasma of about 20 hrs. […] Thus they can be used under a variety of conditions. Phosphonates have the additional advantage of being very stable in plasma and will have a high effectiveness in […] vivo due to their long lifetimes.

Row | Compound | % Inhibition 2 min (Human Placenta DPP-IV; 2 min incubation) | % Inhibition 30 min (Human Placenta DPP-IV; 30 min incubation) | kobs /[I] for DPP-IV (Human Placenta DPP-IV; [I] 0.42 mM) | inhibition of DPP-IV, in words (Human Placenta DPP-IV; 30 min incubation) | recovery of enzyme activity of inhibited DPP-IV (DPP-IV) | DPP-IV enzyme activity found after incubation with inhibitor (DPP-IV) | t1/2, half-life for hydrolysis [1] | inhibition of DPP-IV, in words (Human Placenta DPP-IV; 2 min incubation) | inhibition of chymotrypsin, in words (Chymotrypsin) | kobs /[I] Chymotrypsin (Chymotrypsin) | kobs /[I] for DPP-IV (Human Placenta DPP-IV; [I] 0.042 mM) | hydrolysis half-time in human plasma [2]
1 | C[C@H](N)C(=O)N1CCCC1P(=O)(Oc1ccccc1)Oc1ccccc1.Cl (some centres unmarked) [Compound 6, Diphenyl Alanylpyrrolidine-2-phosphonate Hydrochloride] | 0% | 33% | 1.2 M⁻¹ s⁻¹ | showed some inhibitory potency | did not regain enzyme activity | 30% | 23.1 h |  |  |  |  | 
2 | CC(=O)O.C[C@H](N)C(=O)N1CCCCC1P(=O)(Oc1ccccc1)Oc1ccccc1 (some centres unmarked) [Compound 7, Diphenyl Alanylpiperidine-2-phosphonate Acetate] | 0% | 100% | 12.6 M⁻¹ s⁻¹ | showed some inhibitory potency | did not regain enzyme activity | no enzyme activity | > 72 h |  |  |  |  | 
3 | CC(=O)O.C[C@H](N)C(=O)N1CCCCC1P(=O)(O)Oc1ccccc1 (some centres unmarked) [Compound 8, Monophenyl Alanylpiperidine-2-phosphonate Acetate] | 0% | 0% |  | did not show any inhibition |  |  |  |  |  |  |  | 
4 | Br.N[C@@H](Cc1ccccc1)C(=O)N1CCCC1P(=O)(Oc1ccccc1)Oc1ccccc1 (some centres unmarked) [Compound 9, Diphenyl Phenylalanylpyrrolidine-2-phosphonate Hydrobromide] | 0% | 0% |  | did not show any inhibition |  |  |  |  |  |  |  | 
5 | Br.Br.NCCCC[C@H](N)C(=O)N1CCCC1P(=O)(Oc1ccccc1)Oc1ccccc1 (some centres unmarked) [Compound 10, Diphenyl Lysylpyrrolidine-2-phosphonate Dihydrobromide] | 0% | 0% | 1.7 M⁻¹ s⁻¹ | did not show any inhibition |  |  | 52 h |  |  |  |  | 
6 | Cl.Cl.NCCCC[C@H](N)C(=O)N1CCCCC1P(=O)(Oc1ccccc1)Oc1ccccc1 (some centres unmarked) [Compound 11, Diphenyl Lysylpiperidine-2-phosphonate Dihydrochloride] | 35% | 88% | 4.2 M⁻¹ s⁻¹ | showed some inhibitory potency |  |  | > 48 h | effectively inhibited |  |  |  | 
7 | C[C@H](N)C(=O)N1CCCC1P(=O)(Oc1ccc(Cl)cc1)Oc1ccc(Cl)cc1.Cl (some centres unmarked) [Compound 12, Di(4-chlorophenyl) Alanylpyrrolidine-2-phosphonate Hydrochloride] | 0% | 100% | 28 M⁻¹ s⁻¹ | showed some inhibitory potency | did not regain enzyme activity |  | 5.3 h |  | very slowly | 26 M⁻¹ s⁻¹ |  | 
8 | C[C@H](N)C(=O)N1CCCCC1P(=O)(Oc1ccc(Cl)cc1)Oc1ccc(Cl)cc1.Cl (some centres unmarked) [Compound 13, Di(4-chlorophenyl) Alanylpiperidine-2-phosphonate Hydrochloride] | 88% | 100% |  | showed some inhibitory potency | did not regain enzyme activity | no enzyme activity | 67 h | effectively inhibited | very slowly | 18 M⁻¹ s⁻¹ | 156 M⁻¹ s⁻¹ | 
9 | C[C@H](N)C(=O)N1CCCCC1P(=O)(Oc1ccc(F)cc1)Oc1ccc(F)cc1.Cl (some centres unmarked) [Compound 14, Di(4-fluorophenyl) Alanyl-piperidine-2-phosphonate Hydrochloride] |  |  | 12 M⁻¹ s⁻¹ |  |  | no enzyme activity | > 68 h |  |  |  |  | 
10 | Suc-Val-Pro-Phe^P (OPh)2 |  |  |  |  |  |  |  |  |  |  |  | about 20 hrs
